Reference: the supplement of paper PMC5908809

Key:
[1] = tested on: normal NK cells expanded with K562-aAPC; experiment: percent inhibition of viability; higher = more inhibition; conditions: 72 h, IL-2 2.5 ng/mL
Protocol: (§1)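 Drug sensitivity and resistance testing on K562-aAPC-expanded normal NK cells: 5 concentrations (10-fold steps over a 10,000-fold range), 72 h at 37 °C, viability by CellTiter-Glo normalised to DMSO and benzethonium chloride controls; DSS from the fitted curve.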

DERL-7 (IL-2 2.5 ng/mL) [2] = experiment: as above; conditions: 72 h
IMC-1 (IL-2 20 ng/mL) [3] = experiment: as above; conditions: 72 h
KAI3 (IL-2 2.5 ng/mL) [4] = experiment: as above; conditions: 72 h
KHYG-1 (IL-2 2.5 ng/mL) [5] = experiment: as above; conditions: 72 h
NK-92 (IL-2 2.5 ng/mL) [6] = experiment: as above; conditions: 72 h
NK-YS (IL-2 2.5 ng/mL) [7] = experiment: as above; conditions: 72 h
NKL (IL-2 2.5 ng/mL) [8] = experiment: as above; conditions: 72 h
SNK-6 (IL-2 2.5 ng/mL) [9] = experiment: as above; conditions: 72 h
YT (IL-2 2.5 ng/mL) [10] = experiment: as above; conditions: 72 h
[11] = tested on: normal primary NK cells, pool 1 (3 donors) (IL-2 2.5 ng/mL); experiment: as above; conditions: 72 h
[12] = tested on: normal primary NK cells, pool 1 (3 donors), resting (IL-2 0 ng/mL); experiment: as above; conditions: 72 h
[13] = tested on: normal primary NK cells, pool 2 (3 donors) (IL-2 2.5 ng/mL); experiment: as above; conditions: 72 h
[14] = tested on: normal primary NK cells, pool 3 (3 donors) (IL-2 2.5 ng/mL); experiment: as above; conditions: 72 h
[15] = tested on: normal NK cells expanded with K562-aAPC; experiment: drug sensitivity score (DSS) (DSS units); higher = more sensitive; extreme values may be limits of the assay; conditions: 72 h; IL-2 2.5 ng/mL
Protocol: as §1

DERL-7 (IL-2 2.5 ng/mL) [16] = experiment: as above; conditions: 72 h
IMC-1 (IL-2 20 ng/mL) [17] = experiment: as above; conditions: 72 h
KAI3 (IL-2 2.5 ng/mL) [18] = experiment: as above; conditions: 72 h
KHYG-1 (IL-2 2.5 ng/mL) [19] = experiment: as above; conditions: 72 h
NK-92 (IL-2 2.5 ng/mL) [20] = experiment: as above; conditions: 72 h
NK-YS (IL-2 2.5 ng/mL) [21] = experiment: as above; conditions: 72 h
NKL (IL-2 2.5 ng/mL) [22] = experiment: as above; conditions: 72 h
SNK-6 (IL-2 2.5 ng/mL) [23] = experiment: as above; conditions: 72 h
YT (IL-2 2.5 ng/mL) [24] = experiment: as above; conditions: 72 h
[25] = tested on: normal primary NK cells, pool 1 (3 donors) (IL-2 2.5 ng/mL); experiment: as above; conditions: 72 h
[26] = tested on: normal primary NK cells, pool 1 (3 donors), resting (IL-2 0 ng/mL); experiment: as above; conditions: 72 h
[27] = tested on: normal primary NK cells, pool 2 (3 donors) (IL-2 2.5 ng/mL); experiment: as above; conditions: 72 h
[28] = tested on: normal primary NK cells, pool 3 (3 donors) (IL-2 2.5 ng/mL); experiment: as above; conditions: 72 h

CC[C@@]1(O)C(=O)OCc2c1cc1n(c2=O)Cc2cc3ccccc3nc2-1 [Camptothecin] (max concentration tested 5000 nM)
percent inhibition of viability [%]
Conditions	0.5 nM	5 nM	50 nM	500 nM	5000 nM
DERL-7 (IL-2 2.5 ng/mL) [2]	1	20.8	97.7	92.9	100
IMC-1 (IL-2 20 ng/mL) [3]	-1.32	4.46	99.7	100	100
KAI3 (IL-2 2.5 ng/mL) [4]	11.5	49.2	86.9	62.4	97.2
KHYG-1 (IL-2 2.5 ng/mL) [5]	-0.47	50.6	101	102	99.9
NK-92 (IL-2 2.5 ng/mL) [6]	4.55	41.4	101	102	99.6
NK-YS (IL-2 2.5 ng/mL) [7]	0.45	66.1	93.3	87.5	100
NKL (IL-2 2.5 ng/mL) [8]	11.3	91.1	102	98.4	92.3
SNK-6 (IL-2 2.5 ng/mL) [9]	19.8	56.5	96.8	98	99.4
YT (IL-2 2.5 ng/mL) [10]	-3.33	5.46	90	100	99.6
[1]	4.05	11.2	54.7	59.6	97.7
[11]	-11.7	2.76	-4.81	19.9	41.6
[12]	-1.99	11.5	-26.2	-25.7	-5.52
[13]	-7.85	0.79	8.18	26.8	60.9
[14]	0.98	3.16	10.9	36.9	60.6

Conditions	drug sensitivity score
DERL-7 (IL-2 2.5 ng/mL) [16]	33.3
IMC-1 (IL-2 20 ng/mL) [17]	31
KAI3 (IL-2 2.5 ng/mL) [18]	36.2
KHYG-1 (IL-2 2.5 ng/mL) [19]	36.8
NK-92 (IL-2 2.5 ng/mL) [20]	35.6
NK-YS (IL-2 2.5 ng/mL) [21]	38.3
NKL (IL-2 2.5 ng/mL) [22]	43.1
SNK-6 (IL-2 2.5 ng/mL) [23]	37.5
YT (IL-2 2.5 ng/mL) [24]	29.5
[15]	19.8
[25]	4.65
[26]	0
[27]	6.31
[28]	8.23

O=C1CN2Cc3c(ccc(Cl)c3Cl)N=C2N1 [Anagrelide] (max concentration tested 10000 nM)
percent inhibition of viability [%]
Conditions	1 nM	10 nM	100 nM	1000 nM	10000 nM
DERL-7 (IL-2 2.5 ng/mL) [2]	0.58	-15.8	5.22	-2.15	-3.54
IMC-1 (IL-2 20 ng/mL) [3]	-2	-2.1	0.73	-7.98	0.69
KAI3 (IL-2 2.5 ng/mL) [4]	-3.01	-16.8	2.67	7.81	26.7
KHYG-1 (IL-2 2.5 ng/mL) [5]	-5.21	-5.67	-5.27	2.55	2.12
NK-92 (IL-2 2.5 ng/mL) [6]	-16.3	-4.98	5.49	11	18.2
NK-YS (IL-2 2.5 ng/mL) [7]	-1.23	-6.42	0.98	-1.47	9.94
NKL (IL-2 2.5 ng/mL) [8]	-8	-3.63	5.32	5.47	9.73
SNK-6 (IL-2 2.5 ng/mL) [9]	-14.4	-27.6	-25	10.6	16.6
YT (IL-2 2.5 ng/mL) [10]	-4.72	-11.3	-2.78	-6.4	13
[1]	-10.7	-8.47	-7.13	1.09	4.94
[11]	-7.17	12.1	9.62	3.68	6.66
[12]	-14.4	8.37	10.8	4.74	9.32
[13]	-5.09	5.68	10.3	2.48	5.2
[14]	-7.45	-4.06	-2.15	-4.72	-5.66

Conditions	drug sensitivity score
DERL-7 (IL-2 2.5 ng/mL) [16]	0
IMC-1 (IL-2 20 ng/mL) [17]	0
KAI3 (IL-2 2.5 ng/mL) [18]	2.01
KHYG-1 (IL-2 2.5 ng/mL) [19]	0
NK-92 (IL-2 2.5 ng/mL) [20]	1.23
NK-YS (IL-2 2.5 ng/mL) [21]	0
NKL (IL-2 2.5 ng/mL) [22]	0
SNK-6 (IL-2 2.5 ng/mL) [23]	1.18
YT (IL-2 2.5 ng/mL) [24]	0.03
[15]	0
[25]	0
[26]	0.58
[27]	0
[28]	0
